# Experimental data: US11447535B2, “GLP-1 analogues” (Sun Pharmaceutical Industries Limited, priority 2018, dated 2022)
# Marks after values point to notes of the source that are not given here.
# Legend:
# SD rats = experiment: Oral glucose tolerance test (OGTT) in rats; single injection; 1 mg/kg; type: in vivo; settings: for Blood Glucose AUC (mg/dL*min) Mean: 1 mg/Kg
# Procedure: (§1) Animals were divided into three groups—a normal control group, a test group and a third semaglutide group, with 4 animals in each group. The animals were fasted for 12 hours before initiation of OGTT. To the test group animals, the Compound 1 was injected subcutaneously at 1 mg/kg dose. To the semaglutide group, a dose of 1 mg/kg was injected subcutaneously. After 22 hrs, 166 hrs and 334 hrs of subcutaneous injection of test drug or semaglutide, blood glucose was measured with blood glucose meter (time 0 measurements). All the animals were then given 2 g/kg of glucose solution orally. Blood glucose was measured at 20, 40, 60, 90 and 120 minutes following glucose challenge. Body weight and food intake was recorded. Blood glucose data was analyzed using Two way ANOVA followed by Bonferroni posttests using PRISM (Graph Pad version 5.03). Data of Blood glucose AUC0-120 min, was analyzed using t test.
# as §1, with “animals,” for “animals, the”, “1, Compound 13 and Compound 16 were” for “1 was”, “compound” for “drug”
# [1] = Food intake and body weight recorded in the rat OGTT study; type: in vivo, rats; settings: for Body Weight Change (%) Mean / Food Consumption (g) Mean: 1 mg/Kg
# Procedure: as §1
# as §1, with “animals,” for “animals, the”, “1, Compound 13 and Compound 16 were” for “1 was”, “compound” for “drug”
# [2] = tested on: db/db type 2 diabetic mice; experiment: Reduction of HbA1c in db/db type 2 diabetic mice after chronic treatment (27 day study); type: in vivo; settings: db/db mice
# Procedure: This study was done in diabetic mouse model. The animals were divided into three treatment groups—a diabetic control group, a test group and a semaglutide treatment group. Compound 1 of the present disclosure was injected subcutaneously at 0.3 mg/kg dose once a day for 3 days (qd*3) followed by 0.1 mg/kg dose every alternate day for 7 doses (q2d*7) followed by 0.1 mg/kg dose once every four days for two dose cycles (q4d*2). The same dosage regimen was administered in semaglutide treatment group. Measurements of blood glucose levels and body weight were done daily. % HbA1c was measured on Day 0, day 7, day 14 and day 27 by column chromatography. Cumulative food intake was calculated on day 27. % HbA1C data was analyzed by two way ANOVA followed by Bonferroni's posttests using PRISM (Graph Pad version 5.03).
# [3] = tested on: db/db mice (diabetic mouse model); experiment: Separate db/db diabetic mouse study, q2d*15 up to day 28, recovery period day 29 to day 45; type: in vivo
# Procedure: The study was performed in similar manner as above on diabetic mouse model. The animals were divided into three treatment groups—a diabetic control group, a test group and a semaglutide treatment group. The representative compounds of the present disclosure, Compound 1, Compound 13 and Compound 16, were injected subcutaneously at 3.04 or 6.078 nM dose (every alternate day up to day 28 (q2d*15). The same dosage regimen was administered in semaglutide treatment group. Measurements of blood glucose levels and body weight were done daily. % HbA1c, Insulin was measured on Day 0, day 14 and day 29. Cumulative food intake and body weight change was calculated on day 14 and 29. % HbA1c, Insulin data was analyzed by two way ANOVA followed by Bonferroni's posttests using PRISM (Graph Pad version 5.03). Whereas Blood Glucose AUC, Body weight change and Cumulative food intake data was analyzed by one way ANOVA followed by Bonferroni's posttests using PRISM (Graph Pad version 5.03). From day 29 to day 45, animals were kept on recovery period during which no drug treatment was given. Blood Glucose and Body weight was measured during this period. On day 45, Body weight Changes, % HbA1c, Insulin was measured.
# [4] = rats, 1 mg/kg s.c. single injection, Day 2
# [5] = rats, 1 mg/kg s.c. single injection, Day 4
# [6] = recovery period, earlier dose 12.155 nM
# [7] = recovery study, day 45, earlier dose 12.155 nM
substance,measurement,setting,value
Semaglutide [reference compound],% Glucose Reduction (Blood Glucose AUC0-120 min),"SD rats; OGTT, 1 mg/Kg dose, after 24 hrs",49.3%
same,Blood Glucose AUC (mg/dL*min) Mean,"SD rats; OGTT, 22 hr, Exp. 1",5458.0 mg·min/dL
same,Blood Glucose AUC (mg/dL*min) Mean,"SD rats; OGTT, 22 hr, Exp. 2",4258 mg·min/dL
same,Blood Glucose AUC (mg/dL*min) Mean,"SD rats; OGTT, 168 hr, Exp. 1",12785.0 mg·min/dL
same,Blood Glucose AUC (mg/dL*min) Mean,"SD rats; OGTT, 168 hr, Exp. 2",7410 mg·min/dL
same,Blood Glucose AUC (mg/dL*min) Mean,"SD rats; OGTT, 336 hr, Exp. 1",16223.0 mg·min/dL
same,Blood Glucose AUC (mg/dL*min) Mean,"SD rats; OGTT, 336 hr, Exp. 2",8023.0 mg·min/dL
same,reduction in blood glucose AUC,"SD rats; after 168 hrs of injection, 1 mg/kg",about 25%
same,Body Weight Change (%) Mean,"[1]; 48 h, Exp. 1",−6.5%
same,Food Consumption (g) Mean,"[1]; 48 h, Exp. 1",17.5 g
same,Body Weight Change (%) Mean,"[1]; 48 h, Exp. 2",−8.7%
same,Food Consumption (g) Mean,"[1]; 48 h, Exp. 2",19.3 g
same,Body Weight Change (%) Mean,"[1]; 154 h, Exp. 1",4.5%
same,Food Consumption (g) Mean,"[1]; 154 h, Exp. 1",86.3 g
same,Body Weight Change (%) Mean,"[1]; 154 h, Exp. 2",0.2%
same,Food Consumption (g) Mean,"[1]; 154 h, Exp. 2",50.4 g
same,Body Weight Change (%) Mean,"[1]; 324 h, Exp. 1",11.8%
same,Food Consumption (g) Mean,"[1]; 324 h, Exp. 1",107.9 g
same,Body Weight Change (%) Mean,"[1]; 324 h, Exp. 2",3.8%
same,Food Consumption (g) Mean,"[1]; 324 h, Exp. 2",96.8 g
same,Body Weight (Day 2) % Change vs Baseline,[1]; [4],−7.65%
same,Body Weight (g) (Day 2) Mean,[1]; [4],428.1 g
same,Body Weight (Day 4) % Change vs Baseline,[1]; [5],−5.3%
same,Body Weight (g) (Day 4) Mean,[1]; [5],427.2 g
same,Food Consumption (g) (day 0 to day 2) Mean,"[1]; rats, 1 mg/kg s.c. single injection, day 0 to day 2",5.03*** g
same,Food Consumption (g) (day 0 to day 4) Mean,"[1]; rats, 1 mg/kg s.c. single injection, day 0 to day 4",55.73*** g
same,cumulative food intake vs diabetic control group,[2]; 0 to 27th day (FIG. 8),statistically significant reduction in food intake
same,% HbA1c Mean,[2]; Day 0 (before treatment),5.05%
same,% HbA1c % Change vs DC,"[2]; Day 27, vs Diabetic Control",−2.26%
same,% HbA1c Mean,"[2]; Day 27, s.c. 0.3 mg/kg qd*3, 0.1 mg/kg q2d*7, 0.1 mg/kg q4d*2",5.03*** %
same,% change in body weight,[2]; day 0 to day 27 (FIG. 9),−8%
same,Blood Glucose AUC (Day 0-29) % Change Vs Control,"[3]; 12.155 nM, q2d*15",−41.78%
same,Blood Glucose AUC (Day 0-29) (mg/dL*days) Mean,"[3]; 12.155 nM, q2d*15",9867.9*** mg/dL*days
same,"Body Weight Change Day 29, % Change vs Day 0 Mean","[3]; 12.155 nM, q2d*15",0.7%
same,Cumulative Food Intake (g) Day 0-29 Mean,"[3]; 12.155 nM, q2d*15",92.0 g
same,% HbA1C Mean,"[3]; Day 0, 12.15 nM, q2d*15",7.66%
same,Insulin (ng/mL) Mean,"[3]; Day 0, 12.15 nM, q2d*15",18.7 ng/mL
same,% HbA1C Mean,"[3]; Day 14, 12.15 nM, q2d*15",7.04%
same,Insulin (ng/mL) Mean,"[3]; Day 14, 12.15 nM, q2d*15",37.5 ng/mL
same,% HbA1C Mean,"[3]; Day 29, 12.15 nM, q2d*15",6.47 *** %
same,Insulin (ng/mL) Mean,"[3]; Day 29, 12.15 nM, q2d*15",48.1** ng/mL
same,Blood Glucose AUC (Day 30-37) % Change vs Control,[3]; [6],−15.58%
same,Blood Glucose AUC (Day 30-37) (mg/dL*days) Mean,[3]; [6],3032.0 mg·days/dL
same,Blood Glucose AUC (Day 38-45) % Change vs Control,[3]; [6],−5.16%
same,Blood Glucose AUC (Day 38-45) (mg/dL*days) Mean,[3]; [6],3415.7 mg·days/dL
same,% HbA1C Mean,[3]; [7],7.8%
same,Delta HbA1C vs. DC,[3]; [7],−0.7
same,Insulin (ng/mL) Mean,[3]; [7],19.7 ng/mL
same,Body Weight % Change vs Day 45 Mean,"[3]; recovery study, earlier dose 12.155 nM",9.5%
